# Columns and labels:
# [1] = tested on: PLP injected animals (acute EAE, model for MS); assay: Acute EAE induced with PLP 139-151, clinical signs scoring; assay type: in vivo, SJL female mice
# PC12 neurons = assay: MPP+ toxicity experiment, LDH leakage assay in NGF-differentiated PC12 cells; assay type: cell-based
# Experimental: PC12 cells were grown in Dulbecco's modified Eagle's medium (DMEM), supplemented with 7% fetal calf serum, 7% horse serum, 100 μg/ml streptomycin, and 100 U/ml penicillin. The cultures were maintained in an incubator at 37° C. in a humidified atmosphere of 6% CO2. The growth medium was changed twice weekly and the cultures were split at 1:6 ratio once a week [Abu-Raya et al. J. Neurosci. Methods 50:197-203 (1993)].
# For differentiation, an identical number of PC12 cells (3.75×10^5 cells) was plated on 6-wells plates coated with rat tail type I collagen (0.1 mg/ml) to promote cell adhesion [Abu-Raya et al Rasagiline, a monoamine oxidase-B inhibitor, protects NGF-differentiated PC12 cells against oxygen-glucose deprivation. J. Neurosci. Res. 58:456-463 (1999)]. The differentiation of the cultures was induced by treatment with NGF (50 ng/ml), added every 48 hr for a period of 7-8 days.
# Cell death was evaluated by measuring the leakage of LDH into the growth medium as previously described [Abu-Raya et al. J. Neurosci. Res. 58:456-463, (1999)]. Samples of 50 μl of the growth medium were collected from each well and centrifuged at 3,500 rpm for 5 min at 25° C.; the supernatant was collected and LDH release was measured using a TRACE LD-L reagent. LDH activity was determined using an ELISA reader (TECAN, SPECTRAFluor PLUS, Grodig, Salzburg, Austria) at 340 nm by following the rate of conversion of oxidized nicotinamide adenine dinucleotide (NAD^+) to the reduced form of (NADH). MPP^+-induced LDH release was expressed as 100% of toxicity compared to control-untreated cultures. Each experiment was performed three times in duplicates (n=6).
# On the day of the experiment, the NGF containing medium was replaced with fresh one. […]
# MPP^+ was dissolved in growth medium containing NGF and added to each well in a final concentration of 1500 μM. […] The experiment was accomplished when percentage of cell death was in the range 30-60%, measured by the release of LDH into the medium. […]
structure (smiles),measurement,setting,value
"CC1(C)CC(N)CC(C)(C)N1[O] [TMN, 2,2,6,6-tetramethylpiperidine-4-amino-1-oxyl]","effect on clinical signs of MS, in words","[1]; SSL-TMN i.v., 80 nm, compared with Copaxone, Betaferon, empty SSL, free TMN, FIG. 2",no observed effect against the disease
same,#dead,[1]; Table 4B,1
same,MDD,[1]; Table 4B,19 ± 1.2
same,MDO,[1]; Table 4B,14 ± 0.5
same,MMS,[1]; Table 4B,3.9 ± 0.53
same,Mean score,[1]; Table 4B,3.5 ± 0.21
same,Incidence,"[1]; Table 4B, free TMN at same concentration as encapsulated in the liposomes",5/5
same,toxicity to the cells at higher concentration (bell shape),PC12 neurons; 500 μM-1000 μM TMN,toxic to the cells
same,protection of PC12 neurons from oxidative damage inflicted by MPP+ (LDH release),"PC12 neurons; 1500 μM MPP+, TMN 0.1-100 μM added 1 hr before, LDH after 48 hr, FIG. 1",protects PC12 neurons from oxidative damage
same,most effective TMN concentration for protection against MPP+,"PC12 neurons; 1500 μM MPP+, dose response 0.1-1000 μM",100 µM
